Results as given in patent publication US5064946A, “Therapeutic nucleosides” (priority 1987, dated 1991).

Legend:
Entero. aerogenes = experiment: In vitro antibacterial activity (MIC), Entero. aerogenes; format: cell-based, Enterobacter aerogenes; conditions: Klebsiella aerogenes; Wellcotest sensitivity Test Agar + 7% lysed horse blood
Citro. freundii = experiment: In vitro antibacterial activity (MIC), Citro. freundii; format: cell-based; conditions: Citrobacter freundii; Wellcotest sensitivity Test Agar + 7% lysed horse blood
Salmonella typhimurium = experiment: In vitro antibacterial activity (MIC), Salmonella typhimurium; format: cell-based; conditions: Salmonella enterica, Wellcotest sensitivity Test Agar + 7% lysed horse blood
HIV [1] = experiment: Anti-HIV activity of 3'-azidonucleosides in vitro (T-cells); format: cell-based; conditions: Human immunodeficiency virus 1; T-cells exposed to HIV, viable cell count; read-out: ED50 (the source's name)
E. coli CN314 = experiment: In vitro antibacterial MIC and synergy studies against E. coli CN314; conditions: Escherichia coli
[2] = system: Friend Leukemia Virus (FLV); experiment: Anti-Friend Leukemia Virus plaque inhibition in FG-10 cells; format: cell-based; conditions: dipyridamole 10 μM, dilazep 5 μM, each alone
HIV [3] = experiment: AZT/Acyclovir combinations vs. HIV in vitro (protection); format: cell-based

Row | MIC (Entero. aerogenes) [µg/mL] | MIC (Citro. freundii) [µg/mL] | MIC (Salmonella typhimurium) [µg/mL] | SMILES | MIC (E. coli CN314) [µg/mL] | other results
1 | > 100 | < 0.1 | < 0.1 | CC(=O)OC[C@H]1O[C@@H](n2cc(C)c(=O)n(C(=O)c3ccccc3)c2=O)C[C@@H]1N=[N+]=[N-] [Compound 4, 5'-Acetyl-3'-azido-3-benzoyl-3'-deoxythymidine] | – | –
2 | – | – | – | [N-]=[N+]=N[C@H]1C[C@H](n2cc(/C=C/C(=O)O)c(=O)[nH]c2=O)O[C@@H]1CO [(E)-3-[1-(3'-Azido-2',3'-dideoxy-β-D-erythro-pentofuranosyl)-1,2,3,4-tetrahydro-2,4-dioxo-5-pyrimidinyl]-2-propenoic Acid] | – | EC50 (HIV [1]): 100 µM
3 | – | – | – | CC(=O)O[C@H]1C[C@@]2(C)[C@@H](C[C@@H](O)[C@H]3[C@@]4(C)CC[C@@H](O)[C@@H](C)[C@@H]4CC[C@@]32C)/C1=C(\CCC=C(C)C)C(=O)O [Fusidic acid] | 1000 | –
4 | – | – | – | Cc1cc(C)nc(NS(=O)(=O)c2ccc(N)cc2)n1 [Sulphadimidine] | 32 | –
5 | < 0.1 | 10 | < 0.1 | Cc1cn([C@H]2C[C@H](N=[N+]=[N-])[C@@H](CO)O2)c(=O)[nH]c1=S [Compound 1, 3'-Azido-3'-deoxy-4-thiothymidine] | – | –
6 | > 100 | 10 | 10 | Cc1cn([C@H]2C[C@H](N=[N+]=[N-])[C@@H](CO)O2)c(=S)[nH]c1=O [Compound 3, 3'-Azido-3'-deoxy-2-deoxy-2-thiothymidine] | – | –
7 | 100 | 10 | > 100 | CC(=O)OC[C@H]1O[C@@H](n2cc(C)c(-n3cncn3)nc2=O)C[C@@H]1N=[N+]=[N-] [Compound 5, 1-(5'-O-Acetyl-3'-azido-2',3'-deoxy-β-D-erythro-pentofuranosyl)-5-methyl-4-(1,2,4-triazol-1-yl)-2(1H)-pyrimidinone] | – | –
8 | – | – | – | CO[C@H]1/C=C/O[C@@]2(C)Oc3c(C)c(O)c4c(O)c(c(/C=N/N5CCN(C)CC5)c(O)c4c3C2=O)NC(=O)/C(C)=C\C=C\[C@H](C)[C@H](O)[C@@H](C)[C@@H](O)[C@@H](C)[C@H](OC(C)=O)[C@@H]1C [Rifampicin] | 6.2 | –
9 | – | – | – | OCCN(CCO)c1nc(N2CCCCC2)c2nc(N(CCO)CCO)nc(N3CCCCC3)c2n1 [dipyridamole] | – | observed antiviral effect alone [2]: Neither dipyridamole (10 μM) nor dilazep (5 μM) alone had any observed antiviral effect
10 | – | – | – | O=C(N[C@H](CO)[C@H](O)c1ccc([N+](=O)[O-])cc1)C(Cl)Cl [Chloramphenicol] | 3.1 | –
11 | – | – | – | CCC[C@@H]1C[C@@H](C(=O)N[C@@H]([C@H]2O[C@H](SC)[C@H](O)[C@@H](O)[C@H]2O)[C@H](C)Cl)N(C)C1 [Clindamycin] | 100 | –
12 | – | – | – | [N-]=[N+]=N[C@H]1C[C@H](n2ccc(N)nc2=O)O[C@@H]1CO [3'-Azido-2',3'-dideoxycytidine] | – | EC50 (HIV [1]): 10 µM
13 | – | – | – | COc1cc(C(=O)OCCCN2CCCN(CCCOC(=O)c3cc(OC)c(OC)c(OC)c3)CC2)cc(OC)c1OC [dilazep] | – | observed antiviral effect alone [2]: Neither dipyridamole (10 μM) nor dilazep (5 μM) alone had any observed antiviral effect
14 | 10 | 10 | 10 | Cc1cn([C@H]2C[C@H](N=[N+]=[N-])[C@@H](CO)O2)c(OCc2ccccc2)nc1=O [Compound 6, 1-(3'-Azido-2',3'-dideoxy-β-D-erythro-pentofuranosyl)-2-(benzyloxo)-5-methyl-4-(1H)-pyrimidinone] | – | –
15 | 10 | 10 | 10 | COc1nc(=O)c(C)cn1[C@H]1C[C@H](N=[N+]=[N-])[C@@H](CO)O1 [Compound 7, 3'-Azido-3'-deoxy-2-methoxythymidine] | – | –
16 | – | – | – | CC[C@H]1OC(=O)[C@H](C)[C@@H](O[C@H]2C[C@@](C)(OC)[C@@H](O)[C@H](C)O2)[C@H](C)[C@@H](O[C@@H]2O[C@H](C)C[C@H](N(C)C)[C@H]2O)[C@](C)(O)C[C@@H](C)C(=O)[C@H](C)[C@@H](O)[C@]1(C)O [Erythromycin] | 25 | –
17 | – | – | – | Nc1nc2c(ncn2COCCO)c(=O)[nH]1 [ACV, 9-(2-hydroxyethoxymethyl)guanine] | – | potentiation of the antiviral activity of AZT (HIV [3]): about 3 -fold; activity alone vs. HIV (HIV [3]; ACV alone): little activity; inhibition at 16 µg/mL (HIV [3]; Human immunodeficiency virus 1, T-cell, ACV alone, 16 μg/ml (highest tested)): < 30%
18 | – | – | – | [N-]=[N+]=N[C@H]1C[C@H](n2cc(Br)c(N)nc2=O)O[C@@H]1CO [3'-Azido-5-bromo-2',3'-dideoxycytidine] | – | EC50 (HIV [1]): 5 µM
19 | – | – | – | NC[C@H]1O[C@H](O[C@H]2[C@H](O)[C@@H](O[C@H]3O[C@H](CO)[C@@H](O)[C@H](N)[C@H]3O)[C@H](N)C[C@@H]2N)[C@H](N)C[C@@H]1O [Tobramycin] | 0.4 | –
20 | 10 | 10 | 10 | CC(=O)OC[C@H]1O[C@@H](n2cc(C)c(=S)[nH]c2=O)C[C@@H]1N=[N+]=[N-] [Compound 2, 3'-Azido-3'-deoxy-5'-O-acetyl-4-thiothymidine] | – | –

Row | SMILES | MIC (Entero. aerogenes) [µg/mL] | MIC (Citro. freundii) [µg/mL] | MIC (Salmonella typhimurium) [µg/mL] | MIC (E. coli CN314) [µg/mL] | other results
21 | [N-]=[N+]=N[C@H]1C[C@H](n2cc(Br)c(=O)[nH]c2=O)O[C@@H]1CO [Compound 8, 3'-Azido-5-bromo-2',3'-dideoxyuridine] | > 100 | > 100 | > 100 | – | EC50 (HIV [1]): 5 µM
22 | COc1cc(Cc2cnc(N)nc2N)cc(OC)c1OC [Trimethoprim, 2,4-diamino-5-(3',4',5'-trimethoxybenzyl) pyrimidine, reference compound] | 0.5 | 0.5 | 0.5 | 0.125 | –
